# Test results published in patent publication US11655246B2, “Aminothiazole compounds as inhibitors of CTPS1” (STEP PHARMA S.A.S., priority 2017, dated 2023).
# Counter-ions that a name gives are not always drawn.
# Molecular target: T1, human CTPS1 (Homo sapiens, UniProt P17812)
# T1 construct: purchased Proteros biostructures GmbH
# T1 sequence (P17812 1-591): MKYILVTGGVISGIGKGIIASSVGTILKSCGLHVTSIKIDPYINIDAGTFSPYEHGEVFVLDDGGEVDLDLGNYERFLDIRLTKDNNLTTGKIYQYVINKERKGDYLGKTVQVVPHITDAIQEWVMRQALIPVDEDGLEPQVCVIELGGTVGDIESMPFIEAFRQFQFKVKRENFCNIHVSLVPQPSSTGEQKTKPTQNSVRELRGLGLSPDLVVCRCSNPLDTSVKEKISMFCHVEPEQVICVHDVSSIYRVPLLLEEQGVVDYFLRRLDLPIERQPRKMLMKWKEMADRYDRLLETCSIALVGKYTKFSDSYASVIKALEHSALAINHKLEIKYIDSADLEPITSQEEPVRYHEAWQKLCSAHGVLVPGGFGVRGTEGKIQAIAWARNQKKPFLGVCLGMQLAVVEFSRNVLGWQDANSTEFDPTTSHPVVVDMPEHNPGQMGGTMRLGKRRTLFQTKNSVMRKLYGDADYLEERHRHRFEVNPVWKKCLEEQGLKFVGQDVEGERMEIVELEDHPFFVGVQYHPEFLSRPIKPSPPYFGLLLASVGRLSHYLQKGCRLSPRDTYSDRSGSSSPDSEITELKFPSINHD
# Assay: Human CTPS1 enzyme inhibition (ADP-Glo Max assay)
# Format: biochemical
# Conditions: Table 17, 25° C., read-out: CTPS1 (Human CTPS1 Enzyme Inhibition data grouped by potency range)
# Protocol: The enzyme inhibitory activities of compounds invented against the target of interest were determined using the ADP-Glo™ Max assay (Promega, UK). Assays for human CTPS1 were performed in 1× assay buffer containing 50 mM Tris, 10 mM MgCl2, 0.01% Tween-20, pH to 8.0 accordingly. Finally, immediately before use, L-cysteine was added to the 1× assay buffer to a final concentration of 2 mM. All reagents are from Sigma-Aldrich unless specified otherwise.
# 3× human CTPS1 protein was prepared in 1× assay buffer to the final working protein concentration required for the reaction. A 2 uL volume per well of 3× human CTPS1 protein was mixed with 2 uL per well of 3× test compound (compound prepared in 1× assay buffer to an appropriate final 3× compound concentration respective to the concentration response curve designed for the compounds under test) for 10 minutes at 25° C. […] ADP-Glo™ Max reagent was added for 60 minutes (6 uL per well) and subsequently ADP-Glo™ Max development reagent was added for 60 minutes (12 uL per well) prior to signal detection in a microplate reader (EnVision® Multilabel Reader, Perkin Elmer). Following each reagent addition over the course of the assay, assay plates were pulse centrifuged for 30 seconds at 500 rpm.
# In all cases, the enzyme converts ATP to ADP and the ADP-Glo™ Max reagent subsequently depletes any remaining endogenous ATP in the reaction system. The ADP-Glo™ Max detection reagent converts the ADP that has been enzymatically produced back into ATP and using ATP as a substrate together with luciferin for the enzyme luciferase, light is generated which produces a detectable luminescence. […] The percentage inhibition produced by each concentration of compound was calculated using the equation shown below: […]
row,Compound,IC50
1,CCC(C(=O)Nc1ccc(-c2cncc(F)c2)cc1F)c1csc(NS(=O)(=O)C2CC2)n1 (centres unmarked) [T200],< 100 nM
2,"O=C(Cc1nc(NS(=O)(=O)C2CC2)sc1Cl)Nc1ccc(-c2ccccc2)cc1 [T21, N-([1,1′-biphenyl]-4-yl)-2-(5-chloro-2-(cyclopropanesulfonamido)thiazol-4-yl)acetamide]",1000 to 10000 nM
3,COC(C(=O)Nc1ccc(-c2cccnc2)cc1F)c1csc(NS(=O)(=O)C2CC2)n1 (centres unmarked) [T220],< 100 nM
4,CCC(C(=O)Nc1ccc(-c2cncc(C#N)n2)cc1)c1csc(NS(=O)(=O)C2CC2)n1 (centres unmarked) [T79],100 to 1000 nM
5,CCC(C(=O)Nc1ccc(-c2cncc(OC(F)F)c2)cc1)c1csc(NS(=O)(=O)C2CC2)n1 (centres unmarked) [T210],< 100 nM
6,CCOc1cncc(-c2ccc(NC(=O)C(CC)c3csc(NS(=O)(=O)C4CC4)n3)cc2)c1 (centres unmarked) [T96],< 100 nM

# Now from value to compound:
row,IC50,Compound
1,< 100 nM,CCC(C(=O)Nc1ccc(-c2cncc(OCC(F)(F)F)n2)cc1F)c1csc(NS(=O)(=O)C2CC2)n1 (centres unmarked) [T207]
2,< 100 nM,CCC(C(=O)Nc1ccc(-c2cncc(C#N)c2)cc1)c1csc(NS(=O)(=O)C2CC2)n1 (centres unmarked) [T194]
3,< 100 nM,CCC(C(=O)Nc1ccc(-c2cccnc2)cc1Cl)c1csc(NS(=O)(=O)C2CC2)n1 (centres unmarked) [T221]
4,100 to 1000 nM,"CCC(C(=O)Nc1ccc(-c2cccnc2)cc1)c1csc(NS(=O)(=O)C2CC2)n1 (single isomer, unassigned) [T6, 2-(2-(cyclopropanesulfonamido)thiazol-4-yl)-N-(4-(pyridin-3-yl)phenyl)butanamide.HCl]"

# Same assay, conditions: Table 18, additional potency data, 25° C., read-out: CTPS1 (Human CTPS1 Enzyme Inhibition data grouped by potency range)
row,Compound,IC50
1,"CCOc1cncc(-c2ccc(NC(=O)C(N)c3csc(NS(=O)(=O)C4CC4)n3)c(F)c2)n1 (centres unmarked) [T419, 2-Amino-2-(2-(cyclopropanesulfonamido)thiazol-4-yl)-N-(4-(6-ethoxypyrazin-2-yl)-2-fluorophenyl)acetamide hydrochloride]",< 100 nM
2,"CC(C)Oc1cncc(-c2ccc(NC(=O)C(C)(C)c3csc(NS(=O)(=O)C4CC4)n3)c(F)c2)n1 [T357, 2-(2-(cyclopropanesulfonamido)thiazol-4-yl)-N-(2-fluoro-4-(6-isopropoxypyrazin-2-yl)phenyl)-2-methylpropanamide]",< 100 nM
3,"CC(C)(C(=O)Nc1ccc(-c2cccnc2)cc1)c1csc(NS(=O)(=O)C2CCCC2)n1 [T333, 2-(2-(cyclopentanesulfonamido)thiazol-4-yl)-2-methyl-N-(4-(pyridin-3-yl)phenyl)propanamide]",1000 to 10000 nM
4,"Cc1sc(NS(=O)(=O)C2CC2)nc1C(C)(C)C(=O)Nc1ccc(-c2cncc(C(F)(F)F)n2)cc1F [T354, 2-(2-(cyclopropanesulfonamido)-5-methylthiazol-4-yl)-N-(2-fluoro-4-(6-(trifluoromethyl)pyrazin-2-yl)phenyl)-2-methylpropanamide]",100 to 1000 nM
5,"CCOc1cncc(-c2ccc(NC(=O)C(C)(C)c3nc(NS(=O)(=O)C4CC4)sc3C)nc2)n1 [T342, 2-(2-(cyclopropanesulfonamido)-5-methylthiazol-4-yl)-N-(5-(6-ethoxypyrazin-2-yl)pyridin-2-yl)-2-methylpropanamide]",< 100 nM
6,CCOc1cncc(-c2ccc(NC(=O)C(CC)c3csc(NS(=O)(=O)C4CC4)n3)c(Cl)c2)n1 (centres unmarked) [T439],< 100 nM
7,CCOc1cncc(-c2ccc(NC(=O)C(OC)c3csc(NS(=O)(=O)C4CC4)n3)nc2)n1 (centres unmarked) [T446],< 100 nM

# The next lines start with the values.
row,IC50,Compound
1,100 to 1000 nM,"O=C(Nc1ccc(-c2cncc(C(F)(F)F)n2)cc1)C1(c2csc(NS(=O)(=O)C3CC3)n2)CC1 [T397, 1-(2-(cyclopropanesulfonamido)thiazol-4-yl)-N-(4-(6-(trifluoromethyl)pyrazin-2-yl)phenyl)cyclopropane-1-carboxamide]"
2,< 100 nM,"CCS(=O)(=O)Nc1nc(C(C)(C)C(=O)Nc2ccc(-c3cncc(F)c3)cc2)cs1 [T385, 2-(2-(ethylsulfonamido)thiazol-4-yl)-N-(4-(5-fluoropyridin-3-yl)phenyl)-2-methylpropanamide]"
3,< 100 nM,"CC(C)Oc1cncc(-c2ccc(NC(=O)C(C)(C)c3csc(NS(C)(=O)=O)n3)cc2)n1 [T395, N-(4-(6-isopropoxypyrazin-2-yl)phenyl)-2-methyl-2-(2-(methylsulfonamido)thiazol-4-yl)propanamide]"
